Laboratory results as given in patent US11412737B2, “Mixtures of beflubutamid or optically enriched forms thereof with a second herbicide” (FMC Corporation, priority 2016, dated 2022).

Tests used:
Assay in all cases: post-emergence test, weed control
[1] = tested on: Littleseed canarygrass (PHAMI); assay type: in vivo, Phalaris minor; conditions: post-emergent, 28 DAT, height 7-8 cm, rate g ai/ha by row: r25 94, r26 125, r27 188, r28 125, r29 250, r30 94+125, r31 125+125, r32 188+125, r33 94+250, r34 125+250, r35 188+250
Description: Test compositions containing the test compounds were diluted with water to provide the appropriate test rate concentrations.
For post-emergence testing, seeds of each species for each rate of application of each herbicide solution were planted in 7.5 cm×7.5 cm plastic pots filled with potting soil. The seeds were germinated and the resulting plants were allowed to grow in a greenhouse until they reached a growth stage, such as height, suitable for testing. Treatments were applied using compressed air in a track spray chamber at 30 gallons/acre (280 L/ha) using a TeeJet 8001E nozzle at 40 psi (2.76 bars). Pots of post-emergent treated plants were returned to the greenhouse and not watered for 24 hours after treatment. Thereafter they were regularly watered and fertilized for the duration of the test.
The control of weeds was evaluated in each experimental test at 21 for wheat and 28 days after treatment (DAT) for all species. Data were analyzed using Minitab software at 95% confidence interval. The results, shown as an average of the replications, were compared with results observed in untreated control flats in the same tests. Percent control was determined by a method similar to the 0 to 100 rating system disclosed in “Research Methods in Weed Science,” 2nd ed., B. Truelove, Ed.; Southern Weed Science Society; Auburn University, Auburn, Ala., 1977. The rating system is as follows in Table 1.

[2] = tested on: Large crabgrass (DIGSA); assay type: in vivo; conditions: post-emergent, 28 DAT; for percentage of weed control, DIGSA: height 3-5 cm, rate g ai/ha by row: r25 94, r26 125, r27 188, r28 125, r29 250, r30 94+125, r31 125+125, r32 188+125, r33 94+250, r34 125+250, r35 188+250
[3] = tested on: Rice flatsedge (CYPIR); assay type: in vivo; conditions: post-emergent, 28 DAT, height 1-2 cm; rate g ai/ha by row: r25 94, r26 125, r27 188, r28 125, r29 250, r30 94+125, r31 125+125, r32 188+125, r33 94+250, r34 125+250, r35 188+250
[4] = tested on: Cheat grass (BROSE); assay type: in vivo; conditions: post-emergent, 28 DAT, height 7 cm; rate g ai/ha by row: r7 94, r8 125, r9 188, r10 125, r11 250, r12 94+125, r13 125+125, r14 188+125, r15 94+250, r16 125+250, r17 188+250
[5] = tested on: Common ragweed (AMBEL); assay type: in vivo; conditions: post-emergent, 28 DAT, height 3-4 cm, rate g ai/ha by row: r7 94, r8 125, r9 188, r10 125, r11 250, r12 94+125, r13 125+125, r14 188+125, r15 94+250, r16 125+250, r17 188+250
[6] = tested on: Shattercane (SOBIA); assay type: in vivo; conditions: post-emergent, 28 DAT, height 8 cm, rate g ai/ha by row: r25 94, r26 125, r27 188, r28 125, r29 250, r30 94+125, r31 125+125, r32 188+125, r33 94+250, r34 125+250, r35 188+250

## CC1(C)CON(Cc2ccc(Cl)cc2Cl)C1=O [DCI, 2-(2,4-dichlorophenyl)methyl-4,4-dimethyl-3-isoxazolidinone]
[1]; 125 g ai/ha
  percentage of weed control, PHAMI: 4%
[1]; 250 g ai/ha
  percentage of weed control, PHAMI: 2%
[2]; 125 g ai/ha
  percentage of weed control, DIGSA: 17%
[2]; 250 g ai/ha
  percentage of weed control, DIGSA: 22%
[2]; BFL at 188 g/ha, DCI at 125 g/ha, combination of both
  control of large crabgrass (DIGSA): 17%
[3]
  percentage of weed control, CYPIR: 0%
[4]
  percentage of weed control, BROSE: 0%
[5]; 125 g ai/ha
  percentage of weed control, AMBEL: 73%
[5]; 250 g ai/ha
  percentage of weed control, AMBEL: 77%
[6]; 125 g ai/ha
  percentage of weed control, SOBIA: 1%
[6]; 250 g ai/ha
  percentage of weed control, SOBIA: 4%
